# Test results published in ChEMBL document CHEMBL5724914, “Linking interpersonal differences in gut microbiota composition and drug biotransformation activity” (2024).
# Legend:
# [1] = human gut metagenome, 24 h, 2 µM
# [2] = (§1) The drug is tested on Z-027 corresponding to metagenome with ENA study accession number: PRJEB37062 and ENA sample accession number: ERS12561826 for biotransformation under anaerobic condition. The drug concentrations were measured over 9 timepoints collected between 0 and 24 hours of incubation by liquid-chromatography-coupled mass spectrometry (LC–MS); settings: 2 µM
# [3] = (§2) The drug is tested on WLS-073 corresponding to human gut metagenome with ENA study accession number: PRJEB37062 and ENA sample accession number: ERS12561749 for biotransformation under anaerobic condition. The drug concentrations were measured over 9 timepoints collected between 0 and 24 hours of incubation by liquid-chromatography-coupled mass spectrometry (LC–MS); settings: 2 µM
# [4] = as §2, with “WLS-077” for “WLS-073”, “ERS12561750” for “ERS12561749”; settings: 2 µM
# [5] = human gut metagenome, 24 h, 2 µM; remark: listed apart in the source
# [6] = as §2, with “Z-030” for “WLS-073”, “mouse” for “human”, “ERS12561829” for “ERS12561749”; settings: 2 µM
# [7] = human gut metagenome, 24 h, 2 µM; remark: listed apart in the source
# [8] = as §2, with “WLS-052” for “WLS-073”, “ERS12561747” for “ERS12561749”; settings: 2 µM
# [9] = as §2, with “Z-007” for “WLS-073”, “rat” for “human”, “ERS12561807” for “ERS12561749”; settings: 2 µM
# [10] = as §1, with “Z-012” for “Z-027”, “ERS12561812” for “ERS12561826”; settings: 2 µM
# [11] = as §1, with “Z-005” for “Z-027”, “ERS12561805” for “ERS12561826”; settings: 2 µM
# [12] = human gut metagenome, 24 h, 2 µM; remark: listed apart in the source
# [13] = as §1, with “Z-008” for “Z-027”, “ERS12561808” for “ERS12561826”; settings: 2 µM
# [14] = as §2, with “Z-017” for “WLS-073”, “mouse” for “human”, “ERS12561816” for “ERS12561749”; settings: 2 µM
# [15] = as §2, with “WLS-350” for “WLS-073”, “ERS12561789” for “ERS12561749”; settings: 2 µM
# [16] = human gut metagenome, 24 h, 2 µM; remark: listed apart in the source
# [17] = as §1, with “Z-010” for “Z-027”, “ERS12561810” for “ERS12561826”; settings: 2 µM
# [18] = as §2, with “WLS-038” for “WLS-073”, “ERS12561745” for “ERS12561749”; settings: 2 µM
# [19] = human gut metagenome, 24 h, 2 µM; remark: listed apart in the source
# [20] = human gut metagenome, 24 h, 2 µM; remark: listed apart in the source
# Also: call rule not given here.
Bacterial Biotransformation [1],Bacterial Biotransformation [2],Bacterial Biotransformation [3],Bacterial Biotransformation [4],Bacterial Biotransformation [5],Bacterial Biotransformation [6],Bacterial Biotransformation [7],Bacterial Biotransformation [8],Bacterial Biotransformation [9],Bacterial Biotransformation [10],Bacterial Biotransformation [11],Bacterial Biotransformation [12],Bacterial Biotransformation [13],Bacterial Biotransformation [14],Bacterial Biotransformation [15],Bacterial Biotransformation [16],Bacterial Biotransformation [17],Bacterial Biotransformation [18],Bacterial Biotransformation [19],Bacterial Biotransformation [20],SMILES
Compound metabolized,Compound metabolized,Compound metabolized,Compound metabolized,Compound metabolized,Compound NOT metabolized,Compound metabolized,Compound metabolized,Compound metabolized,Compound metabolized,Compound metabolized,Compound metabolized,Compound metabolized,Compound metabolized,Compound metabolized,Compound metabolized,Compound metabolized,Compound metabolized,Compound metabolized,Compound metabolized,CCCc1nc2c(C)cc(-c3nc4ccccc4n3C)cc2n1Cc1ccc(-c2ccccc2C(=O)O)cc1
Compound NOT metabolized,Compound NOT metabolized,Compound NOT metabolized,Compound NOT metabolized,Compound NOT metabolized,Compound NOT metabolized,Compound NOT metabolized,Compound NOT metabolized,Compound NOT metabolized,Compound NOT metabolized,Compound NOT metabolized,Compound metabolized,Compound NOT metabolized,Compound NOT metabolized,Compound NOT metabolized,Compound NOT metabolized,Compound NOT metabolized,Compound NOT metabolized,Compound NOT metabolized,Compound NOT metabolized,CN1CCc2c(c3ccccc3n2Cc2ccccc2)C1.CN1CCc2c(c3ccccc3n2Cc2ccccc2)C1.O=S(=O)(O)c1cccc2c(S(=O)(=O)O)cccc12
Compound NOT metabolized,Compound NOT metabolized,Compound metabolized,Compound NOT metabolized,Compound NOT metabolized,Compound NOT metabolized,Compound metabolized,Compound metabolized,Compound NOT metabolized,Compound NOT metabolized,Compound NOT metabolized,Compound metabolized,Compound NOT metabolized,Compound NOT metabolized,Compound metabolized,Compound metabolized,Compound metabolized,Compound NOT metabolized,Compound metabolized,Compound metabolized,COc1cc2nc(N(C)CCCNC(=O)C3CCCO3)nc(N)c2cc1OC (stereo not given) [ALFUZOSIN]
Compound NOT metabolized,Compound NOT metabolized,Compound NOT metabolized,Compound NOT metabolized,Compound NOT metabolized,Compound NOT metabolized,Compound NOT metabolized,Compound NOT metabolized,Compound NOT metabolized,Compound NOT metabolized,Compound NOT metabolized,Compound metabolized,Compound NOT metabolized,Compound NOT metabolized,Compound metabolized,Compound metabolized,Compound NOT metabolized,Compound NOT metabolized,Compound NOT metabolized,Compound NOT metabolized,CC(C)(C#N)c1cc(Cn2cncn2)cc(C(C)(C)C#N)c1 [ANASTROZOLE]

# Continued, molecule first:
SMILES,Bacterial Biotransformation [1],Bacterial Biotransformation [2],Bacterial Biotransformation [3],Bacterial Biotransformation [4],Bacterial Biotransformation [5],Bacterial Biotransformation [6],Bacterial Biotransformation [7],Bacterial Biotransformation [8],Bacterial Biotransformation [9],Bacterial Biotransformation [10],Bacterial Biotransformation [11],Bacterial Biotransformation [12],Bacterial Biotransformation [13],Bacterial Biotransformation [14],Bacterial Biotransformation [15],Bacterial Biotransformation [16],Bacterial Biotransformation [17],Bacterial Biotransformation [18],Bacterial Biotransformation [19],Bacterial Biotransformation [20]
Cc1cc2c(cc1S(N)(=O)=O)S(=O)(=O)CCC2,Compound NOT metabolized,Compound NOT metabolized,Compound NOT metabolized,Compound NOT metabolized,Compound NOT metabolized,Compound NOT metabolized,Compound NOT metabolized,Compound NOT metabolized,Compound NOT metabolized,Compound NOT metabolized,Compound NOT metabolized,Compound NOT metabolized,Compound NOT metabolized,Compound NOT metabolized,Compound NOT metabolized,Compound NOT metabolized,Compound NOT metabolized,Compound NOT metabolized,Compound NOT metabolized,Compound NOT metabolized
CN1CC(=O)N2[C@H](c3ccc4c(c3)OCO4)c3[nH]c4ccccc4c3C[C@@H]2C1=O,Compound NOT metabolized,Compound NOT metabolized,Compound NOT metabolized,Compound metabolized,Compound NOT metabolized,Compound NOT metabolized,Compound metabolized,Compound metabolized,Compound NOT metabolized,Compound metabolized,Compound NOT metabolized,Compound metabolized,Compound NOT metabolized,Compound NOT metabolized,Compound metabolized,Compound metabolized,Compound metabolized,Compound metabolized,Compound metabolized,Compound metabolized
NC12CC3CC(CC(C3)C1)C2 [AMANTADINE],Compound NOT metabolized,Compound NOT metabolized,Compound NOT metabolized,Compound NOT metabolized,Compound NOT metabolized,Compound NOT metabolized,Compound NOT metabolized,Compound NOT metabolized,Compound NOT metabolized,Compound NOT metabolized,Compound NOT metabolized,Compound NOT metabolized,Compound NOT metabolized,Compound NOT metabolized,Compound NOT metabolized,Compound NOT metabolized,Compound NOT metabolized,Compound NOT metabolized,Compound NOT metabolized,Compound NOT metabolized
O=P(O)(O)O.c1ccc(CN(CC2=NCCN2)c2ccccc2)cc1 [ANTAZOLINE PHOSPHATE],Compound NOT metabolized,Compound NOT metabolized,Compound NOT metabolized,Compound NOT metabolized,Compound NOT metabolized,Compound NOT metabolized,Compound NOT metabolized,Compound NOT metabolized,Compound NOT metabolized,Compound NOT metabolized,Compound NOT metabolized,Compound metabolized,Compound NOT metabolized,Compound NOT metabolized,Compound NOT metabolized,Compound NOT metabolized,Compound metabolized,Compound NOT metabolized,Compound NOT metabolized,Compound NOT metabolized
